Compound in one assay: Cc1ccc(NC(=O)c2ccc(CN3CCN(C)CC3)cc2)cc1Nc1nc(-c2cccnc2)cs1 [Masitinib]
The assay is described as follows: relative viability (nuclei count vs DMSO), 5 days (fraction); higher = more cells survive. The gist of the method:
(§1)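 Lung cancer cell lines in 1536-well plates were exposed by pinning to five library-drug doses (not always all listed) √10 apart, following an overnight hold at 37 °C. MetaXpress counted Hoechst-stained nuclei from 4× images taken after 5 days without medium change. Viability is the median ratio of treated-well to vehicle-well nuclei across plates. Plates required control CV below 25% and at least one doubling.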

Compound in assay [1]: CC1=CC(=CC=C1)NC2=NC(=CS2)C3=CC=NC=C3
Described as above. The gist of the method:
as §1

Here are results for twelve cell lines from the supplement of paper PMC10307832.

For NCI-H2228, the relative viability in the assay with Masitinib (0.01 µM) was 0.998; with Masitinib (0.03162 µM), 0.808; with Masitinib (0.1 µM), 1.16; in the assay with Masitinib (0.3162 µM) it was 1.04; with Masitinib (1 µM) it was 1.06; in assay [1] (0.08 µM), 0.838. Besides, the relative viability is 0.948 in assay [1] (0.253 µM), 0.784 in assay [1] (0.8 µM), 0.91 in assay [1] (2.53 µM) and 0.726 in assay [1] (8 µM).
In the case of NCI-H2342, the relative viability was determined as 1.03 with Masitinib (0.01 µM); 0.866 with Masitinib (0.03162 µM); 1.07 in the assay with Masitinib (0.1 µM); 0.889 with Masitinib (0.3162 µM); 0.843 with Masitinib (1 µM); 0.96 in assay [1] (0.08 µM). Moreover, the relative viability in assay [1] (0.253 µM) was 0.929; in assay [1] (0.8 µM), 0.95; in assay [1] (2.53 µM), 0.93; in assay [1] (8 µM), 0.881.
For NCI-H2347, the relative viability in the assay with Masitinib (0.01 µM) is 0.88; in the assay with Masitinib (0.03162 µM), 0.911; with Masitinib (0.1 µM) it was 1; with Masitinib (0.3162 µM), 1.02; in the assay with Masitinib (1 µM), 0.966; in assay [1] (0.08 µM) it was 0.948. For the same cell line, the relative viability in assay [1] (0.253 µM) worked out at 0.864; in assay [1] (0.8 µM), 0.749; in assay [1] (2.53 µM) it was 0.982; in assay [1] (8 µM) it was 0.964.
With NCI-H2405, the relative viability stood at 0.859 with Masitinib (0.01 µM); 0.953 with Masitinib (0.03162 µM); 0.907 with Masitinib (0.1 µM); 0.973 in the assay with Masitinib (0.3162 µM); 0.932 with Masitinib (1 µM); 0.851 in assay [1] (0.08 µM). The relative viability was determined as 0.918 in assay [1] (0.253 µM), 0.85 in assay [1] (0.8 µM), 0.915 in assay [1] (2.53 µM) and 0.901 in assay [1] (8 µM).
In the case of NCI-H3122, the relative viability was 0.854 with Masitinib (0.01 µM); 1.03 in the assay with Masitinib (0.03162 µM); 0.959 with Masitinib (0.1 µM); 1 with Masitinib (0.3162 µM); 1.08 in the assay with Masitinib (1 µM); 0.983 in assay [1] (0.08 µM). For the same cell line, the relative viability in assay [1] (0.253 µM) was determined as 1.05; in assay [1] (0.8 µM) it was 1.04; in assay [1] (2.53 µM) it was 1.06; in assay [1] (8 µM), 0.972.
For the cell line PC-3 [JPC-3], the relative viability with Masitinib (0.01 µM) worked out at 0.95; with Masitinib (0.03162 µM), 0.951; with Masitinib (0.1 µM), 1.04; with Masitinib (0.3162 µM), 1.04; in the assay with Masitinib (1 µM), 1.02; in assay [1] (0.08 µM) it was 0.941. Besides, the relative viability stood at 0.936 in assay [1] (0.253 µM), 0.927 in assay [1] (0.8 µM), 0.868 in assay [1] (2.53 µM) and 0.91 in assay [1] (8 µM).
For the cell line PC-14, the relative viability with Masitinib (0.01 µM) worked out at 0.916; in the assay with Masitinib (0.03162 µM), 0.943; with Masitinib (0.1 µM), 1.01; in the assay with Masitinib (0.3162 µM), 1.01; with Masitinib (1 µM), 1.01; in assay [1] (0.08 µM) it was 0.94. Also, the relative viability in assay [1] (0.253 µM) stood at 0.899; in assay [1] (0.8 µM), 0.943; in assay [1] (2.53 µM), 0.917; in assay [1] (8 µM), 0.766.
For RERF-LC-KJ, the relative viability with Masitinib (0.01 µM) came out at 0.922; with Masitinib (0.03162 µM), 0.943; with Masitinib (0.1 µM), 1.03; with Masitinib (0.3162 µM) it was 0.963; with Masitinib (1 µM) it was 0.829; in assay [1] (0.08 µM), 0.945. Also, the relative viability in assay [1] (0.253 µM) is 0.91; in assay [1] (0.8 µM) it was 0.834; in assay [1] (2.53 µM), 0.751; in assay [1] (8 µM), 0.714.
As to SK-LU-1, the relative viability with Masitinib (0.01 µM) amounted to 1.05; in the assay with Masitinib (0.03162 µM), 1.05; with Masitinib (0.1 µM), 1.13; with Masitinib (0.3162 µM), 1.24; with Masitinib (1 µM), 1.02; in assay [1] (0.08 µM), 0.996. Further, the relative viability in assay [1] (0.253 µM) is 1.03; in assay [1] (0.8 µM) it was 0.702; in assay [1] (2.53 µM) it was 1.1; in assay [1] (8 µM), 0.968.
As for SK-MES-1, the relative viability with Masitinib (0.01 µM) came out at 0.923; with Masitinib (0.03162 µM) it was 0.945; with Masitinib (0.1 µM), 1.04; with Masitinib (0.3162 µM), 0.881; with Masitinib (1 µM), 0.99; in assay [1] (0.08 µM), 0.815. The relative viability is 0.82 in assay [1] (0.253 µM), 0.804 in assay [1] (0.8 µM), 0.922 in assay [1] (2.53 µM) and 0.861 in assay [1] (8 µM).
SW 900: the relative viability with Masitinib (0.01 µM) was found to be 0.854; with Masitinib (0.03162 µM), 0.881; with Masitinib (0.1 µM) it was 0.778; in the assay with Masitinib (0.3162 µM), 0.629; in the assay with Masitinib (1 µM), 0.7; in assay [1] (0.08 µM) it was 0.708. The relative viability in assay [1] (0.253 µM) was 0.774; in assay [1] (0.8 µM), 0.808; in assay [1] (2.53 µM) it was 0.487; in assay [1] (8 µM) it was 0.514.
On to SW 1573, for which the relative viability was 1.08 with Masitinib (0.01 µM); 0.945 with Masitinib (0.03162 µM); 1.1 with Masitinib (0.1 µM); 1.02 in the assay with Masitinib (0.3162 µM); 0.974 with Masitinib (1 µM); 0.989 in assay [1] (0.08 µM). The relative viability in assay [1] (0.253 µM) stood at 0.945; in assay [1] (0.8 µM) it was 1.08; in assay [1] (2.53 µM), 0.962; in assay [1] (8 µM), 0.909.
